Experimental data: patent US10450317B2, “Notch pathway signaling inhibitor compounds” (Eli Lilly and Company, priority 2015, dated 2019)
Values joined by “and” are separate entries in the source; they are usually repeats but may differ in a detail not shown here. Equal entries are not always repeated.

Tests used:
[1] = test system: hair cell generation markers Atoh1, Pou4f3, Myo7a in organ of Corti explants; assay: Organ of Corti explant assay, hair cell marker gene expression by qRT-PCR; assay type: cell-based, mice; conditions: 1 μM, fold-induction relative to negative control, ± SEM
Protocol: Generally, organ of Corti organotypic explant culture is carried out on Day 0 according to the method described in Parker et al., Journal of Visualized Experiments, 2010, (36), e1685. Explant culture is carried out for 4-7 days at which point the culture is either prepared for cellular lysis for qRT-PCR, or tissue fixation for immunohistochemistry.
The bulla and surrounding tissue from the petrous portion of the temporal bone are removed from 1 to 4 day-old postnatal mice (transgenic strain: Atoh1-driven nGFP; Lumpkin E A, et al., Gene Expr Patterns, 2003, (36):389-95) of both sexes. Organs of Corti are dissected in Hanks solution, the spiral ligament is removed and the explants are placed on cover slips coated with poly-L-ornithine (0.01%, Sigma) and laminin ([…], Becton Dickinson) to obtain a preparation with a flat cochlear surface. Each cochlear explant is then placed in a single well of a 24 well plate (Falcon) and cultured in DMEM (Invitrogen) with 5% fetal bovine serum, 5% horse serum, and penicillin-streptomycin (LifeTechnologies). Experimental compounds are added with medium on Day 0 and replaced every 2-3 days. All cultures are maintained in a 5% CO2 humidified incubator at 37° C.
RNA Extraction is carried out by lysing the explant tissue with 350 μl RLT Plus buffer (Qiagen) per well, and total RNA is purified by RNeasy® Plus Mini Kit (Qiagen). cDNA synthesis is carried out with the SuperScript® III First-Strand Synthesis System (LifeTechnologies) using random hexamers. To quantify the induction of hair cell marker expression, qPCR is performed with TaqMan Gene Expression Master Mix (LifeTechnologies, 4369016) and probes to detect genes of interest (e.g. […]; Assay ID Mm00476035_s1, Pou4f3; Assay ID Mm04213795_s1 and Myo7a; Assay ID Mm01274015_m1, LifeTechnologies) and an endogenous control gene, Tbp (Assay ID Mm00446971_m1, LifeTechnologies). Relative gene expression between treatment groups is analyzed using the ΔΔCT method and replicate measurements are averaged. Experiments are carried out in triplicate, at a minimum, and reported as a grand mean.
Data (±SEM) represent the fold-induction in gene expression relative to negative control-treated samples.

cleaved Notch1 (N1ICD) = assay: In-vivo target inhibition study, cleaved N1ICD in lung by ELISA; parameters: species or system Balb/C mice; conditions: mouse lung
Protocol: To evaluate in vivo effect of Compound 1, Isomer 2 and. Compound 2, Isomer 2 on inhibition of Notch processing pharmacodynamics (PD), animal studies were conducted in non-tumor bearing Balb/C mice (Charles River). A total of 5 mice are used for each group. Mice are fed ad libitum on normal chow. Treatment is initiated with oral administration (gavage) of compound or vehicle (1% Na-CMC in 0.25% Tween-80) in 0.2 mL volume. At designated time points (4 or 8 hours after the dose) following treatment, animals are sacrificed by CO2 asphyxiation and cervical dislocation. Tissues (Lungs) are removed and used for PD response analysis as measured by cleaved N1ICD.
To evaluate N1ICD levels in lung, approximately 75 mg is cut from the frozen tissue and minced prior to homogenization (actual mass recorded). […] are transferred to Lysing Matrix-D™ tubes and re-suspended in ice-cold XY lysis buffer (25 mM Tris pH 7.5, 10 μg/ml Trypsin/Chymotrypsin inhibitor, 10 μg/ml Aprotinin, 60 mM Beta-glycerol phosphate, 1% Triton® X-100, 10 mM NaF, 2.5 mM pyrophosphate, 150 mM NaCl, 15 mM ethylene diamine tetra acetic acid (EDTA) pH 8.0, 5 mM ethylene glycol-bis(2-aminoethylether)-N,N,N′,N′-tetra acetic acid (EGTA) pH 8.0, 1 mM Na Vanadate, 10 μg/ml Leupeptin, 1 mM dithiothreitol, 1 μM microcystin LR, 10 μg/ml N-p-tosyl-L-phenylalanine chloromethyl ketone (TPCK), 2 mM Nα-p-tosyl-L-arginine methyl ester hydrochloride (TAME), 15 mM 4-nitrophenyl phosphate di(tris) salt (PNPP), 0.1 mM 4-(2-aminoethyl) benzenesulfonyl fluoride hydrochloride (AEBSF), 5 mM benzamidine, 1 μM Okadaic Acid) containing 1× Complete tablet (Roche Complete™ No. 11697 498 001) and 1× Protease Inhibitor cocktail (Sigma-Aldrich P8340) at a mass: volume ratio of 75 mg/ml buffer. Tissues are homogenized in a Fast Prep FP120 homogenizer (Thermo Scientific, Rockford, Ill.) at a speed of 6.0 for 30 seconds at 4° C., followed by 15 minute incubation on ice. This is repeated for a total of 2-3 cycles until homogenization is complete. Lysates are spun in a 4° C. eppendorf centrifuge at 30,000 rpm for 15 minutes to remove debris. 400 μl of supernatant is removed and transferred to a new eppendorf tube and subjected to a freeze/thaw cycle. Samples are re-spun in a 4° C. eppendorf centrifuge at 30,000 rpm for 30 minutes and 120 μl of supernatant is collected for analysis. Total protein concentration is determined using Pierce BCA Protein Assay Kit™ (Thermo Scientific, Rockford, Ill.) using a Thermomax™ plate reader (Molecular Devices, Sunnyvale, Calif.). N1ICD levels are determined using a custom N1ICD ELISA. Analyte is captured with a cleaved Notch1 (Val1744)-specific custom rabbit monoclonal antibody and detected with a C-terminal Notch1 SULFO-TAG™ (Meso Scale Discovery, Gaithersburg, Md.) polyclonal sheep antibody (R&D Systems, Minneapolis, Minn.). Lysates are diluted to 2 μg/μl in ice-cold ELISA tris lysis buffer (R6OTX) (Meso Scale Discovery, Gaithersburg, Md.) containing 1× Complete tablet (Roche Complete™ mini No. 11 836 153 001) and 1× Protease Inhibitor cocktail (Sigma-Aldrich P8340), and 25 μl is added to the ELISA plate. Incubation of 50 μg protein lysate is done at RT for one hour each to capture analyte and with detection antibody. Plates are read on a Sector Imager 6000™ (Meso Scale Discovery, Gaithersburg, Md.). Background subtracted N1ICD is normalized to total protein and presented as % inhibition relative to the vehicle-treated group. N1ICD % inhibition and statistical significance (p value) as measured by Dunett's method in tumors harvested 4 hours after last dose for Compound 1, Isomer 2 or Compound 2, Isomer 2 is analyzed essentially as described above and summarized in Table 1.

[2] = oral 10 mg/kg, 4 hours following treatment

Row | SMILES | RQ of Atoh1 expression [1] | RQ of Myo7a expression [1] | RQ of Pou4f3 expression [1] | % N1ICD inhibition (Ave ± SD; n = 1) (cleaved Notch1 (N1ICD); oral 0.3 mg/kg, 8 hours following treatment) | % N1ICD inhibition (Ave ± SD; n = 1) (cleaved Notch1 (N1ICD); oral 1 mg/kg, 8 hours following treatment) | % N1ICD inhibition (Ave ± SD; n = 1) (cleaved Notch1 (N1ICD); oral 3 mg/kg, 8 hours following treatment) | % N1ICD inhibition (Ave ± SD; n = 1) (cleaved Notch1 (N1ICD); [2]) | % N1ICD inhibition (Ave ± SD; n = 1) (cleaved Notch1 (N1ICD); oral 10 mg/kg, 8 hours following treatment, listed as 1, Isomer 2, 10 mg/kg) | % N1ICD inhibition (Ave ± SD; n = 1) (cleaved Notch1 (N1ICD); oral 30 mg/kg, 8 hours following treatment) | % N1ICD inhibition (Ave ± SD; n = 1) (cleaved Notch1 (N1ICD); oral 100 mg/kg, 8 hours following treatment) | % N1ICD inhibition (Ave ± SD; n = 1) (cleaved Notch1 (N1ICD); oral 10 mg/kg, 8 hours following treatment)
1 | COc1ccc2c(c1)N1CCC(C)(C)C1=CC(=O)C2NC(=O)[C@H](C)NC(=O)CCC(F)(F)F (single isomer, unassigned) [Compound 1, Isomer 2] | 3.72 ± 0.54 | 1.73 ± 0.33 | 2.04 ± 0.35 | −7 ± 26% | 6 ± 15% | 11 ± 13% | 70 ± 12% | 52 ± 31% and 65 ± 11% | 87 ± 3% | 92 ± 3% | 
2 | C[C@H](NC(=O)CCC(F)(F)F)C(=O)NC1C(=O)C=C2N(CCC2(C)C)c2ncccc21 (single isomer, unassigned) [Compound 2, Isomer 2] | 3.10 ± 0.69 | 1.49 ± 0.22 | 1.65 ± 0.25 |  |  |  | 65 ± 11% |  |  |  | 15 ± 14%
